Target: T1, human PAH with the R408W mutation (A375 R408W cells) (Homo sapiens, UniProt P00439, R408W)
T1 construct: expressed in transfected cells
T1 sequence (P00439 1-452 R408W): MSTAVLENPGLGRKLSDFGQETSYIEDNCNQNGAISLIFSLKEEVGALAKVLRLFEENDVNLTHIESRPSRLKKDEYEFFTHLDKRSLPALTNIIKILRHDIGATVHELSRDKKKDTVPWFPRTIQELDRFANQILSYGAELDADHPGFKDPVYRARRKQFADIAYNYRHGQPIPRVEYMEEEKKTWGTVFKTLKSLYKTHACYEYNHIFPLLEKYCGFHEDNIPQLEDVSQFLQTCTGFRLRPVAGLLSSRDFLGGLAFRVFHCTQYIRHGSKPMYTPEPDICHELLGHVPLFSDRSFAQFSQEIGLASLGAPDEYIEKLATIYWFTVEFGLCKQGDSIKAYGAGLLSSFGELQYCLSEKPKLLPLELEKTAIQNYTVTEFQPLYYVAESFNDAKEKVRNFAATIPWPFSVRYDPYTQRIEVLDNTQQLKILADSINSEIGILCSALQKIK
Experiment: Cell Based Phenylalanine Flux Assay
Conditions: 24 hrs with compound, then 20 μM sepiapterin and 800 μM 13C9,15N-Phenylalanine for 4 hours, 13C-Tyrosine by LC-MS, average where tested multiple times
Summary of the method: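 Phenylalanine-to-tyrosine flux is measured in A375 cells carrying stable human R408W PAH. After 24 h compound exposure, 13C9,15N-Phe (800 μM) with sepiapterin (20 μM) is supplied for 4 h and media 13C-Tyr is read by LC-MS; AC50s are binned.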

[1] = A375 cells expressing R408W PAH

| Structure (SMILES) | AC50 [1] [nM] | AC50 (A375 R408W cells) [nM] |
| --- | --- | --- |
| Cc1nc(C2(O)CCC2)oc1C(=O)N1CCc2[nH]cnc2C1c1nc2cc(F)ccc2o1 (stereo not shown) | 1000 to 5000 | – |
| COc1ccc(-c2nc(C(F)F)c(C(=O)N3CCc4[nH]cnc4[C@@H]3c3nc4cc(F)ccc4o3)o2)nc1 [Example 446, (R)-(4-(difluoromethyl)-2-(5-methoxypyridin-2-yl)oxazol-5-yl)(4-(5-fluorobenzo[d]oxazol-2-yl)-6,7-dihydro-1H-imidazo[4,5-c]pyridin-5(4H)-yl)methanone] | – | ≤ 500 |
| O=C(c1cncs1)N1CCc2[nH]cnc2C1c1nc2cc(F)ccc2o1 (stereo not shown) | 1000 to 5000 | – |
| COc1ccc2oc([C@@H]3c4nc[nH]c4CCN3C(=O)c3nnc(-c4cnn(C)c4)o3)nc2c1 [Example 553, (S)-(4-(5-methoxybenzo[d]oxazol-2-yl)-6,7-dihydro-1H-imidazo[4,5-c]pyridin-5(4H)-yl)(5-(1-methyl-1H-pyrazol-4-yl)-1,3,4-oxadiazol-2-yl)methanone] | – | 500 to 1000 |
| O=C(CCc1cncs1)N1CCc2[nH]cnc2C1c1nc2ccc(F)cc2o1 (stereo not shown) | 1000 to 5000 | – |
| C[C@@H](O)c1nc(C(F)F)c(C(=O)N2CCc3[nH]cnc3[C@@H]2c2nc3ccc(F)cc3o2)o1 [Example 240, (4-(difluoromethyl)-2-((R)-1-hydroxyethyl)oxazol-5-yl)((R)-4-(6-fluorobenzo[d]oxazol-2-yl)-6,7-dihydro-1H-imidazo[4,5-c]pyridin-5(4H)-yl)methanone] | – | 1000 to 5000 |
| CN1CCN(c2ccc3c(C(=O)N4CCc5[nH]cnc5[C@H]4c4nc5cc(F)ccc5o4)cnn3c2)CC1(C)C [Example 139, (S)-(4-(5-fluorobenzo[d]oxazol-2-yl)-6,7-dihydro-1H-imidazo[4,5-c]pyridin-5(4H)-yl)(6-(3,3,4-trimethylpiperazin-1-yl)pyrazolo[1,5-a]pyridin-3-yl)methanone] | – | 500 to 1000 |
| CN(C)CCc1ccc2c(C(=O)N3CCc4[nH]cnc4[C@@H]3c3nc4cc(F)ccc4o3)cnn2c1 [Example 48, (R)-(6-(2-(dimethylamino)ethyl)pyrazolo[1,5-a]pyridin-3-yl)(4-(5-fluorobenzo[d]oxazol-2-yl)-6,7-dihydro-1H-imidazo[4,5-c]pyridin-5(4H)-yl)methanone] | – | ≥ 5000 |
| Cc1ccc2nc([C@@H]3c4nc[nH]c4CCN3C(=O)c3oc(C(C)(C)O)nc3C)oc2c1 [Example 319, (S)-(2-(2-hydroxypropan-2-yl)-4-methyloxazol-5-yl)(4-(6-methylbenzo[d]oxazol-2-yl)-6,7-dihydro-1H-imidazo[4,5-c]pyridin-5(4H)-yl)methanone] | – | 500 to 1000 |
| O=C(c1nnc(C2CC2)o1)N1CCc2[nH]cnc2[C@@H]1c1nc2cc(F)ccc2o1 [Example 16, (R)-(5-cyclopropyl-1,3,4-oxadiazol-2-yl)(4-(5-fluorobenzo[d]oxazol-2-yl)-6,7-dihydro-1H-imidazo[4,5-c]pyridin-5(4H)-yl)methanone] | – | 1000 to 5000 |
| CC(C)(O)c1ncc(C(=O)N2CCc3[nH]cnc3C2c2nc3cc(F)ccc3o2)s1 (stereo not shown) | 1000 to 5000 | – |
| Cn1cc(-c2nnc(C(=O)N3CCc4[nH]cnc4[C@H]3c3nc4c(F)cccc4o3)o2)cn1 [Example 197, (S)-(4-(4-fluorobenzo[d]oxazol-2-yl)-6,7-dihydro-1H-imidazo[4,5-c]pyridin-5(4H)-yl)(5-(1-methyl-1H-pyrazol-4-yl)-1,3,4-oxadiazol-2-yl)methanone] | – | 500 to 1000 |
| O=C(c1cn(-c2ccccn2)nc1Cl)N1CCc2[nH]cnc2[C@@H]1c1nc2cc(F)ccc2o1 (single isomer, unassigned) | ≥ 5000 | – |
| COc1ccc2oc([C@@H]3c4nc[nH]c4CCN3C(=O)c3ocnc3C(F)F)nc2c1 [Example 341, (S)-(4-(difluoromethyl)oxazol-5-yl)(4-(5-methoxybenzo[d]oxazol-2-yl)-6,7-dihydro-1H-imidazo[4,5-c]pyridin-5(4H)-yl)methanone] | – | ≤ 500 |
| O=C(c1ccnn1C(F)F)N1CCc2[nH]cnc2[C@@H]1c1nc2c(F)cccc2o1 [Example 202, (R)-(1-(difluoromethyl)-1H-pyrazol-5-yl)(4-(4-fluorobenzo[d]oxazol-2-yl)-6,7-dihydro-1H-imidazo[4,5-c]pyridin-5(4H)-yl)methanone] | – | 1000 to 5000 |
| Cn1nccc1C(=O)N1CCc2[nH]cnc2[C@@H]1c1nc2ccccc2o1 [Example 712, (R)-(4-(benzo[d]oxazol-2-yl)-6,7-dihydro-1H-imidazo[4,5-c]pyridin-5(4H)-yl)(1-methyl-1H-pyrazol-5-yl)methanone] | – | 1000 to 5000 |
| O=C(c1ocnc1C(F)F)N1CCc2[nH]cnc2[C@H]1c1nc2c(F)ccc(F)c2o1 [Example 373, (S)-(4-(4,7-difluorobenzo[d]oxazol-2-yl)-6,7-dihydro-1H-imidazo[4,5-c]pyridin-5(4H)-yl)(4-(difluoromethyl)oxazol-5-yl)methanone] | – | ≤ 500 |

| Structure (SMILES) | AC50 [1] [nM] | AC50 (A375 R408W cells) [nM] |
| --- | --- | --- |
| O=C(c1nnc(-c2ccc(F)cc2)o1)N1CCc2[nH]cnc2[C@@H]1c1nc2cc(F)ccc2o1 [Example 28, (R)-(4-(5-fluorobenzo[d]oxazol-2-yl)-6,7-dihydro-1H-imidazo[4,5-c]pyridin-5(4H)-yl)(5-(4-fluorophenyl)-1,3,4-oxadiazol-2-yl)methanone] | – | 1000 to 5000 |
| O=C(c1cnco1)N1CCc2[nH]cnc2C1c1nc2c(F)cccc2o1 (stereo not shown) | ≥ 5000 | – |
| O=C(c1ccn(CC(F)F)n1)N1CCc2[nH]cnc2C1c1nc2cccc(F)c2o1 (stereo not shown) | 1000 to 5000 | – |
| O=C(c1ccnn1CC(F)F)N1CCc2[nH]cnc2[C@H]1c1nc2cccc(F)c2o1 [Example 847, (S)-(1-(2,2-difluoroethyl)-1H-pyrazol-5-yl)(4-(7-fluorobenzo[d]oxazol-2-yl)-6,7-dihydro-1H-imidazo[4,5-c]pyridin-5(4H)-yl)methanone] | – | ≤ 500 |
| O=C(c1cnn2cc(N3CCC(O)CC3)ccc12)N1CCc2[nH]cnc2C1c1nc2c(F)cccc2o1 (stereo not shown) | ≥ 5000 | – |
| O=C(c1cnn(-c2ccccn2)c1Cl)N1CCc2[nH]cnc2C1c1nc2cc(F)ccc2o1 (stereo not shown) | 1000 to 5000 | – |
| Cc1cccc2nc([C@@H]3c4nc[nH]c4CCN3C(=O)c3nnc(-c4ccccn4)o3)oc12 [Example 567, (S)-(4-(7-methylbenzo[d]oxazol-2-yl)-6,7-dihydro-1H-imidazo[4,5-c]pyridin-5(4H)-yl)(5-(pyridin-2-yl)-1,3,4-oxadiazol-2-yl)methanone] | – | ≤ 500 |
| O=C(c1nnc(-c2cnn(C(F)F)c2)o1)N1CCc2[nH]cnc2C1c1nc2cc(C(F)(F)F)ccc2o1 (stereo not shown) | ≥ 5000 | – |
| CC(F)(F)c1ncoc1C(=O)N1CCc2[nH]cnc2[C@@H]1c1nc2cc(F)ccc2o1 [Example 154, (R)-(4-(1,1-difluoroethyl)oxazol-5-yl)(4-(5-fluorobenzo[d]oxazol-2-yl)-6,7-dihydro-1H-imidazo[4,5-c]pyridin-5(4H)-yl)methanone] | – | 1000 to 5000 |
| Cc1cc(C(=O)N2CCc3[nH]cnc3[C@H]2c2nc3cccc(F)c3o2)n(C)n1 [Example 769, (S)-(1,3-dimethyl-1H-pyrazol-5-yl)(4-(7-fluorobenzo[d]oxazol-2-yl)-6,7-dihydro-1H-imidazo[4,5-c]pyridin-5(4H)-yl)methanone] | – | 1000 to 5000 |
| Cc1c(F)ccc2oc([C@@H]3c4nc[nH]c4CCN3C(=O)c3oc(C(C)(C)O)nc3C(F)F)nc12 [Example 719, (S)-(4-(difluoromethyl)-2-(2-hydroxypropan-2-yl)oxazol-5-yl)(4-(5-fluoro-4-methylbenzo[d]oxazol-2-yl)-6,7-dihydro-1H-imidazo[4,5-c]pyridin-5(4H)-yl)methanone] | – | ≤ 500 |
| CN(C)Cc1nnc(C(=O)N2CCc3[nH]cnc3[C@@H]2c2nc3cc(F)ccc3o2)o1 (single isomer, unassigned) | ≥ 5000 | – |
| Cc1nc(C(=O)N2CCc3[nH]cnc3[C@@H]2c2nc3c(C)cccc3o2)n(C)n1 [Example 820, (R)-(1,3-dimethyl-1H-1,2,4-triazol-5-yl)(4-(4-methylbenzo[d]oxazol-2-yl)-6,7-dihydro-1H-imidazo[4,5-c]pyridin-5(4H)-yl)methanone] | – | ≥ 5000 |
| Cn1cc(-c2nnc(C(=O)N3CCc4[nH]cnc4[C@H]3c3nc4c(F)c(F)ccc4o3)o2)cn1 [Example 645, (S)-(4-(4,5-difluorobenzo[d]oxazol-2-yl)-6,7-dihydro-1H-imidazo[4,5-c]pyridin-5(4H)-yl)(5-(1-methyl-1H-pyrazol-4-yl)-1,3,4-oxadiazol-2-yl)methanone] | – | 1000 to 5000 |
| Cc1cccc2nc([C@H]3c4nc[nH]c4CCN3C(=O)c3ccnn3C)oc12 [Example 748, (R)-(1-methyl-1H-pyrazol-5-yl)(4-(7-methylbenzo[d]oxazol-2-yl)-6,7-dihydro-1H-imidazo[4,5-c]pyridin-5(4H)-yl)methanone] | – | 1000 to 5000 |
| COc1cccc2nc([C@H]3c4nc[nH]c4CCN3C(=O)c3ccnn3C)oc12 [Example 750, (R)-(4-(7-methoxybenzo[d]oxazol-2-yl)-6,7-dihydro-1H-imidazo[4,5-c]pyridin-5(4H)-yl)(1-methyl-1H-pyrazol-5-yl)methanone] | – | 1000 to 5000 |
| O=C(CCc1nccs1)N1CCc2[nH]cnc2[C@H]1c1nc2c(F)cccc2o1 [Example 397, (S)-1-(4-(4-fluorobenzo[d]oxazol-2-yl)-6,7-dihydro-1H-imidazo[4,5-c]pyridin-5(4H)-yl)-3-(thiazol-2-yl)propan-1-one] | – | 500 to 1000 |
